Earlier results on eleven molecules are cited in patent US12600787B2, “Methods for the treatment of thyroid eye disease” (Horizon Therapeutics Ireland DAC, priority 2019, dated 2026).

Like-named read-outs stand apart in the source and are kept apart here.

One series deals with IGF-1 R (Homo sapiens, UniProt P08069). To be noted: cited from earlier work.
A further series addresses ALK (Homo sapiens, UniProt Q9UM73). To be noted: cited from earlier work.
Another series has as its system neuroblastoma. To be noted: by overcoming crizotinib resistance and inducing apoptosis; cited from earlier work.
For series [1] the following is noted: cited from earlier work.
The subject of another series is tumors. Particulars: in vivo; cited from earlier work.
In a further series the target is IGF-IR (purified enzyme) (Homo sapiens, UniProt P08069). Particulars: cited from earlier work.
The subject of series [2] is intracellular IGF-IR phosphorylation. To be noted: cited from earlier work.
In series [3] the target is c-erbB2/HER2/neu receptor (Homo sapiens, UniProt P04626). To be noted: cited from earlier work.
In series [4] the test system is susceptible tumor cell populations. To be noted: cited from earlier work.
For series [5] the following is noted: cited from earlier work. This is another data set of the same source.
For series [6], the system named is IGF-1 R-overexpressing tumor cells. Particulars: cited from earlier work.
In series [7] the test system is moderate-to-severe active TED. Particulars: cited from earlier work.
For a further series, the system named is TED (GO). To be noted: cited from earlier work.

Chain of IGF-1 R (P08069 31-1367): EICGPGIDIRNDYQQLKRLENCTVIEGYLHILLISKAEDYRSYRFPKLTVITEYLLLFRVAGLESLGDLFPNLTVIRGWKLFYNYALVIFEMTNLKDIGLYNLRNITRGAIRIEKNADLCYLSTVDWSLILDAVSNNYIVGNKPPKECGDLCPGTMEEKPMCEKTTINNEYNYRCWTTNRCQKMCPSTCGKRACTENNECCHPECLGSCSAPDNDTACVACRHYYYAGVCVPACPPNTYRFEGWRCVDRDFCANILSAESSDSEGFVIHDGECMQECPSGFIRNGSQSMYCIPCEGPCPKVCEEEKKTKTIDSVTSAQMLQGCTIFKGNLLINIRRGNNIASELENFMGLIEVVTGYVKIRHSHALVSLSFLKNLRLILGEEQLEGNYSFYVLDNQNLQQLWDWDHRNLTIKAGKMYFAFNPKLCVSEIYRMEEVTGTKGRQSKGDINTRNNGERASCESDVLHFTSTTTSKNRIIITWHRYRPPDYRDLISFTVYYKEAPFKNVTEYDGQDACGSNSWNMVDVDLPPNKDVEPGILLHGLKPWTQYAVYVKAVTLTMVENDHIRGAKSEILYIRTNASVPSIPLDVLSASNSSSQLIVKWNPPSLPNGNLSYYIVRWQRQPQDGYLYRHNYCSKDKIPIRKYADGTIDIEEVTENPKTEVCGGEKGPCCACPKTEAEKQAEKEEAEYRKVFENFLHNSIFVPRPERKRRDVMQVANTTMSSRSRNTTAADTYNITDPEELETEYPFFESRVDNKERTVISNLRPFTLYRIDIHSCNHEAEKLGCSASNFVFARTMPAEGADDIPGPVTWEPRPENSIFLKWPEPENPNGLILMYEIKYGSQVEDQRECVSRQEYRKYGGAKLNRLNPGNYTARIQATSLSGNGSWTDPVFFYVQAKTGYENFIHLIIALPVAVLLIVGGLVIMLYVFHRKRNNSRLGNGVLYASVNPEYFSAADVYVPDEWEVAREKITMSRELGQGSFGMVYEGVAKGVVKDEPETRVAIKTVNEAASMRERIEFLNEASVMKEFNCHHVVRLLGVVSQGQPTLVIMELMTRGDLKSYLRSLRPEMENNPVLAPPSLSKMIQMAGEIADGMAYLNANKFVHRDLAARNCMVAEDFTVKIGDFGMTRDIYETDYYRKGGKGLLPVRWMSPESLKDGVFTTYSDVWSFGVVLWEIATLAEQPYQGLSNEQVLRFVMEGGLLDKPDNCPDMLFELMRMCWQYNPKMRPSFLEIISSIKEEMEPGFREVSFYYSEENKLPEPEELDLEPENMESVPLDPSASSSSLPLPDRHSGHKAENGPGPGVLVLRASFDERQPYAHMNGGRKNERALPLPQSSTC
Chain of IGF-IR (purified enzyme) (P08069 31-1367): as above
Chain of c-erbB2/HER2/neu receptor (P04626 23-1255): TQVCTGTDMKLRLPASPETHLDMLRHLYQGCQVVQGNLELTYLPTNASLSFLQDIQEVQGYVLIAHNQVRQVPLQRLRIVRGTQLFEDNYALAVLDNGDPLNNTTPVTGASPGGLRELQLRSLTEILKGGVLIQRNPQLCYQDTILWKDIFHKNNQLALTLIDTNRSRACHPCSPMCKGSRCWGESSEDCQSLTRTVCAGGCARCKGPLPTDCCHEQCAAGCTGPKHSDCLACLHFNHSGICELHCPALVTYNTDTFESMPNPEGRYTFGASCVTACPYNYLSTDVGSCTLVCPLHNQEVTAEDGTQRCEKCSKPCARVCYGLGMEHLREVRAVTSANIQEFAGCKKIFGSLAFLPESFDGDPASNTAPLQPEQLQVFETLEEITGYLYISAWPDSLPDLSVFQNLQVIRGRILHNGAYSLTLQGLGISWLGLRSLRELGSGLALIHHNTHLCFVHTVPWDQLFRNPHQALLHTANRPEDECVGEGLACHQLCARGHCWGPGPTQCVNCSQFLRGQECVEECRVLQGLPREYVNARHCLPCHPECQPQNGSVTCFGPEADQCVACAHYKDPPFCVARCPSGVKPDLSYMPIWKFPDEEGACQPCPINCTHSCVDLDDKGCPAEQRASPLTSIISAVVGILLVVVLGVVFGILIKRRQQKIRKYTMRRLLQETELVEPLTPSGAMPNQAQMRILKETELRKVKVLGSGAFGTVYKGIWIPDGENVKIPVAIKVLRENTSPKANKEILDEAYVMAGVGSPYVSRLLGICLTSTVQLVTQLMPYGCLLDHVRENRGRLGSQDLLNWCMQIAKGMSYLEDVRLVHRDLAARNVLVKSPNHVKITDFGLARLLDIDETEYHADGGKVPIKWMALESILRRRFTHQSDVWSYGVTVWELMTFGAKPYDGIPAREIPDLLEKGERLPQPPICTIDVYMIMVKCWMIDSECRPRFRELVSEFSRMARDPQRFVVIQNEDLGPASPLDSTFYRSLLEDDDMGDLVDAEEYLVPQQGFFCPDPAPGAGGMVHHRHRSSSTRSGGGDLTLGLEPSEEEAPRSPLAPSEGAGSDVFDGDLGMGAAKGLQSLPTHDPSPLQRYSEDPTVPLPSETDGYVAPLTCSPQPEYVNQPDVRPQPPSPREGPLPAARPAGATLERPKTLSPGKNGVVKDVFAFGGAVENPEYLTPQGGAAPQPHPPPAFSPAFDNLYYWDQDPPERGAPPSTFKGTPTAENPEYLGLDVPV
Chain of ALK (Q9UM73 19-1620, species assumed): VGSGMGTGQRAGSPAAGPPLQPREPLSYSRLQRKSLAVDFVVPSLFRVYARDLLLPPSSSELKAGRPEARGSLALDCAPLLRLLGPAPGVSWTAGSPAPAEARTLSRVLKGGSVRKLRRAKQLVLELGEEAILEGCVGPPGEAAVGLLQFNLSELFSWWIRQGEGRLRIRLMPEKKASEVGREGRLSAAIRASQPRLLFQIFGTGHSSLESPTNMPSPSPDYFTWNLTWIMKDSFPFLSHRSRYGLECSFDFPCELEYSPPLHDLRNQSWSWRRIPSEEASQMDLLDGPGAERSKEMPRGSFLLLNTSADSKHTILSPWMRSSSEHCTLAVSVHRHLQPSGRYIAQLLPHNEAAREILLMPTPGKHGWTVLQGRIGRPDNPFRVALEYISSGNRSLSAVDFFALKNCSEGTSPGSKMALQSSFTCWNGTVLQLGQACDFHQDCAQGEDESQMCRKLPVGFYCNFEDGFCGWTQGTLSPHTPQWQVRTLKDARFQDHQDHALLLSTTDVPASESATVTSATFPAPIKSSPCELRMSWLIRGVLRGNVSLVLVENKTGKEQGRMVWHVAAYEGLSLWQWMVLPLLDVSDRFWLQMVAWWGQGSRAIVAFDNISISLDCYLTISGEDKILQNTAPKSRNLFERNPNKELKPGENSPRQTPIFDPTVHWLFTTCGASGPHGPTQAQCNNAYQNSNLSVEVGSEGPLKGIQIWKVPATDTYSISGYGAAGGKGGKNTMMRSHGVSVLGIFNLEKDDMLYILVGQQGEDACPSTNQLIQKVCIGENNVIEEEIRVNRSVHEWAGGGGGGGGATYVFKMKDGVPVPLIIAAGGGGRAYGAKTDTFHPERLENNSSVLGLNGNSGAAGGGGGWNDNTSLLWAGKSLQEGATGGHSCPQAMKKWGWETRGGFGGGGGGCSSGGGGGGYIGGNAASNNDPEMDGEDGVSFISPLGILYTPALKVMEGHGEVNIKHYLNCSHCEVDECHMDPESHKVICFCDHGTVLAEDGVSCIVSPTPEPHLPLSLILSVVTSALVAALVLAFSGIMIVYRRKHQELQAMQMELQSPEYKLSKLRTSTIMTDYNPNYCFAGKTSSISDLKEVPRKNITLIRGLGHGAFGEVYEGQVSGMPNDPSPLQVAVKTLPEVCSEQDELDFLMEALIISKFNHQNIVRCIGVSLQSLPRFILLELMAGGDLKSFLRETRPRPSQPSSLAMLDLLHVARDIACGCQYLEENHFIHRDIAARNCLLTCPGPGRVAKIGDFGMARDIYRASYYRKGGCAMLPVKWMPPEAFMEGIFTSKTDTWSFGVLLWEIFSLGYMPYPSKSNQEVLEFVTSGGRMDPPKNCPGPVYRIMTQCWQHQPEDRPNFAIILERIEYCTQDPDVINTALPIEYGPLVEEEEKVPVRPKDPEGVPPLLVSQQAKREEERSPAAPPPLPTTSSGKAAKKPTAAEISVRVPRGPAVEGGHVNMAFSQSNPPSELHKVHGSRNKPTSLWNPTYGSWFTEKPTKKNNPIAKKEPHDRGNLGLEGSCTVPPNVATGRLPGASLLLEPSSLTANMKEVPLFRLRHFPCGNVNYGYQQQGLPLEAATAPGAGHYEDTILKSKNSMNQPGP

On to `COc1cc(N2CCC(N)CC2)ccc1Nc1ncc(Cl)c(-c2c[nH]c3ccccc23)n1` [AZD3463], for which the IGF-1R inhibition entry on IGF-1 R was “potent ALK/IGF-1 R inhibitor”. For the same molecule, on ALK, the ALK inhibition result was “potent ALK/IGF-1 R inhibitor”. Also, in the series on neuroblastoma, the neuroblastoma growth entry is “inhibition of neuroblastoma growth”.
Turning to `COCCN1CCN(CCn2ccc(Nc3ncc4c(n3)[C@@H](C)Cc3nn(C)c(-c5ccccc5)c3-4)n2)CC1` [BI885578], the in vivo half-life result in series [1] is “short in vivo half-life”. Further, in series [1] (in vivo), the intestinal absorption result is given as “rapid intestinal absorption” and the metabolic clearance result was “rapid metabolic clearance”. Moreover, the “cell proliferation and apoptosis in tumors” value in the series on tumors was “inhibition of cell proliferation and induction of apoptosis in tumors”.
With `Nc1ncnc2c1c(-c1ccc3[nH]c(Cc4ccccc4Cl)nc3c1)nn2[C@H]1CC[C@H](N2CCOCC2)CC1` [Example A-928605], the “inhibition of IGF-IR” value at IGF-IR (purified enzyme) is given as “potent inhibitor”. The “inhibition of IGF-IR phosphorylation” value in series [2] is reported as “potent inhibitor”.
As to `C[C@H](Cc1ccc(O)c(O)c1)[C@@H](C)Cc1ccc(O)c(O)c1` [INSM-18, nordihydroguaiaretic acid], the IGF-1R inhibition result on IGF-1 R is on record as “directly inhibits activation”. In addition, the “inhibition of activation of c-erbB2/HER2/neu receptor” value in series [3] was “directly inhibits activation”. Moreover, the “proliferation of tumor cells” value in [4] is on record as “decreased proliferation”.
For `C[C@]1(O)C[C@@H](c2nc(-c3ccc4ccc(-c5ccccc5)nc4c3)c3c(N)nccn32)C1` [Linsitinib], in series [5] (oral), the T1/2 entry is “oral; 2-4 hrs”.
Consider `CCOC(=O)N1CCC(Nc2cc(Cl)cc3c(S(=O)(=O)N4CCO[C@H](COc5ccccc5)C4)c(C(N)=O)[nH]c23)CC1` [PL-225B], for which, on IGF-1 R, the IGF-1R inhibition entry was “selectively inhibits”. Moreover, in series [6], the tumor cell apoptosis result is recorded as “induction of tumor cell apoptosis” and the tumor cell proliferation entry is “inhibition of tumor cell proliferation”. Moreover, the T1/2 entry in series [5] (oral) is given as “Oral; 21d”.
“Cixutumumab: IGF-1R inhibitor antibody, HC SEQ ID NO:55, LC SEQ ID NO:56”: in series [5] (IV), the T1/2 result is “IV; 5 days”.
As for “Dalotuzumab: IGF-1R inhibitor antibody, HC SEQ ID NO:7, LC SEQ ID NO:8”, the T1/2 result in series [5] (in vivo) was “IV; 5 days”.
With “rituximab: a CD20+ B cell-depleting agent”, the “trial result versus placebo” value in series [7] (first monocenter RCT, 2015) is reported as “negative (no differences with placebo)”. Further, the “reduction in proptosis compared with ivGCs” value in series [7] (results using rituximab versus ivGC RCT) was “not different”. Besides, the “trial result versus ivGCs” value in series [7] (second monocenter RCT, 2015) was “positive (beneficial effects comparable to ivGCs)”.
Turning to “teprotumumab: fully human IGF-IR-inhibitory monoclonal antibody approved for the treatment of TED”, in the series on TED (GO) (in vivo), the “efficacy in the treatment of TED” value is reported as “effective”. In the series with TED (GO) (vs. 0.15 mm in the placebo group), the “average decrease in exophthalmos” value is listed as 2.46 mm. In addition, the T1/2 entry in series [5] (IV) was “IV; 8 days”.

B1: Figitumumab: IGF-1R inhibitor antibody, HC SEQ ID NO:39, LC SEQ ID NO:40 (antibody)
heavy: EVQLLESGGGLVQPGGSLRLSCTASGFTFSSYAMNWVRQAPGKGLEWVSAISGSGGTTFYADSVKGRFTISRDNSRTTLYLQMNSLRAEDTAVYYCAKDLGWSDSYYYYYGMDVWGQGTTVTVSSASTKGPSVFPLAPCSRSTSESTAALGCLVKDYFPEPVTVSWNSGALTSGVHTFPAVLQSSGLYSLSSVVTVPSSNFGTQTYTCNVDHKPSNTKVDKTVERKCCVECPPCPAPPVAGPSVFLFPPKPKDTLMISRTPEVTCVVVDVSHEDPEVQFNWYVDGVEVHNAKTKPREEQFNSTFRVVSVLTVVHQDWLNGKEYKCKVSNKGLPAPIEKTISKTKGQPREPQVYTLPPSREEMTKNQVSLTCLVKGFYPSDIAVEWESNGQPENNYKTTPPMLDSDGSFFLYSKLTVDKSRWQQGNVFSCSVMHEALHNHYTQKSLSLSPGK
light: DIQMTQFPSSLSASVGDRVTITCRASQGIRNDLGWYQQKPGKAPKRLIYAASRLHRGVPSRFSGSGSGTEFTLTISSLQPEDFATYYCLQHNSYPCSFGQGTKLEIKRTVAAPSVFIFPPSDEQLKSGTASVVCLLNNFYPREAKVQWKVDNALQSGNSQESVTEQDSKDSTYSLSSTLTLSKADYEKHKVYACEVTHQGLSSPVTKSFNRGEC
modifications: Heavy Chain of Figitumumab; Light Chain of Figitumumab
Take B1: the T1/2 result in series [5] (IV) is reported as “IV; 20 days”.
